Test results reported in article PMC4971745, “Evaluation of a Set of C9 N-acyl Neu5Ac2en Mimetics as Viral Sialidase Selective Inhibitors” (International Journal of Medicinal Chemistry, 2010).

How the values were obtained:
[1] = tested on: sialidase of influenza A virus A/Duck/313/78 (H5N3); type: biochemical; conditions: pH 6; read-out: Viral sialidase inhibition (IC50) H5N3
[2] = molecular target: T1, sialidase of influenza A virus A/Memphis/1/71 (H3N2) (Influenza A virus, UniProt P03475); test: biochemical
T1 construct: preincubated with 5 μL of the virus containing 2 enzyme units; host or cells: whole virus preparation
T1 sequence (P03475 whole entry): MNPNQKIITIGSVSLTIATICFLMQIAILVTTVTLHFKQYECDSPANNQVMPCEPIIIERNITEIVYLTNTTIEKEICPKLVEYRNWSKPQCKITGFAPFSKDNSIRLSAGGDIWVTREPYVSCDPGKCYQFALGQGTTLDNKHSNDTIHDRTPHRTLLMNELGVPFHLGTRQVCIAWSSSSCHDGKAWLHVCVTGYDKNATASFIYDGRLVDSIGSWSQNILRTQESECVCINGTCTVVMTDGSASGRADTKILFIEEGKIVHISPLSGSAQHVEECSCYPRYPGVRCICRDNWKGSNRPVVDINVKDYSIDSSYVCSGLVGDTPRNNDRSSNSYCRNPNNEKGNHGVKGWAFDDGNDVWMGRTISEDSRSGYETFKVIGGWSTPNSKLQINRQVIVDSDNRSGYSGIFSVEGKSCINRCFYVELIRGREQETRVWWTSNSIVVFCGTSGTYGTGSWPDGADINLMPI

[3] = molecular target: T2, sialidase of influenza A virus A/PR/8/34 (H1N1) (Influenza A virus, UniProt P03468); test: biochemical
T2 construct: preincubated with 5 μL of the virus containing 2 enzyme units; host or cells: whole virus preparation
T2 sequence (P03468 whole entry): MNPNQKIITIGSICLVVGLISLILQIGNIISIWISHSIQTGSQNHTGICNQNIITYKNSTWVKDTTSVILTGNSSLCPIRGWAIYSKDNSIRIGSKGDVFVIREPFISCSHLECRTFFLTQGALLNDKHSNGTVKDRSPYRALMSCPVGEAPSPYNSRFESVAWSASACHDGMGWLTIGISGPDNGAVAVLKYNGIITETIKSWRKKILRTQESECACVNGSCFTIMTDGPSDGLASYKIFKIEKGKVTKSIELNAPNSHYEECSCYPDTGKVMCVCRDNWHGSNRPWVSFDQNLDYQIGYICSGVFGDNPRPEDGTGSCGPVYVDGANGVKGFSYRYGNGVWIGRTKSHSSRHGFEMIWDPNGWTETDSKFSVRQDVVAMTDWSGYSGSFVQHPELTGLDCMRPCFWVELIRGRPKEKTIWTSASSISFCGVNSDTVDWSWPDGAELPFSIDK

human sialidase NEU4 = conditions: previously reported; ref [39]; read-out: Human sialidase inhibition (IC50) NEU4; cited from earlier work
human sialidase NEU3 = conditions: previously reported; ref [39]; read-out: Human sialidase inhibition (IC50) NEU3; cited from earlier work
human sialidase NEU2 = conditions: previously reported; ref [39]; read-out: Human sialidase inhibition (IC50) NEU2; cited from earlier work
human sialidase NEU1 = conditions: previously reported; ref [39]; read-out: Human sialidase inhibition (IC50) NEU1; cited from earlier work

| Compound | IC50 [1] | IC50 [2] | IC50 [3] | IC50 (human sialidase NEU4) | IC50 (human sialidase NEU3) | IC50 (human sialidase NEU2) | IC50 (human sialidase NEU1) |
| --- | --- | --- | --- | --- | --- | --- | --- |
| CC(=O)N[C@@H]1[C@@H]([C@H](O)[C@H](O)CNC(=O)C(C)(C)C)OC(C(=O)O)=C[C@H]1O [Compound 13] | > 1000 µM | 770 µM | 78 µM | – | – | – | – |
| CC(=O)N[C@@H]1[C@@H]([C@H](O)[C@H](O)CNC(=O)C(C)C)OC(C(=O)O)=C[C@H]1O [Compound 11] | > 1000 µM | 680 µM | 54 µM | – | – | – | – |
| CC(=O)N[C@H]1[C@H]([C@H](O)[C@H](O)CO)OC(C(=O)O)=C[C@@H]1O [DANA, 5-acetamido-2,6-anhydro-3,5-dideoxy-D-glycero-D-galacto-non-2-enonic acid, reference compound] | 11 µM | 9 µM | – | 74 µM | 61 µM | – | – |
| CCCC(=O)NC[C@@H](O)[C@@H](O)[C@H]1OC(C(=O)O)=C[C@@H](O)[C@@H]1NC(C)=O [Compound 9] | – | 559 µM | 97 µM | – | – | – | – |
| CC(=O)N[C@@H]1[C@@H]([C@H](O)[C@H](O)CNC(=O)C2CCCC2)OC(C(=O)O)=C[C@H]1O [Compound 7] | > 1000 µM | > 1000 µM | 850 µM | – | – | – | – |
| CCC(CC)C(=O)NC[C@@H](O)[C@@H](O)[C@@H]1OC(C(=O)O)=C[C@H](O)[C@H]1NC(C)=O [Compound 14] | > 1000 µM | > 1000 µM | 698 µM | – | – | – | – |
| CC(=O)NC[C@@H](O)[C@@H](O)[C@H]1OC(C(=O)O)=C[C@@H](O)[C@@H]1NC(C)=O [Compound 5] | 97 µM | 34 µM | 22 µM | 580 µM | > 1000 µM | > 1000 µM | 58 µM |
| CC(=O)N[C@@H]1[C@@H]([C@H](O)[C@H](O)CNC(=O)c2ccccc2)OC(C(=O)O)=C[C@H]1O [Compound 6] | > 1000 µM | > 1000 µM | > 1000 µM | – | – | – | – |
| CC(=O)N[C@@H]1[C@@H]([C@H](O)[C@H](O)CNC(=O)C2CC2)OC(C(=O)O)=C[C@H]1O [Compound 8] | 98 µM | 16 µM | 9 µM | 825 µM | > 1000 µM | > 1000 µM | 680 µM |
| CCCCC(=O)NC[C@@H](O)[C@@H](O)[C@H]1OC(C(=O)O)=C[C@@H](O)[C@@H]1NC(C)=O [Compound 12] | > 1000 µM | 159 µM | 34 µM | – | – | – | – |
| CCC(C)C(=O)NC[C@@H](O)[C@@H](O)[C@@H]1OC(C(=O)O)=C[C@H](O)[C@H]1NC(C)=O (some centres unmarked) [Compound 10] | > 1000 µM | > 1000 µM | 59 µM | – | – | – | – |
